# Source: patent US6444617B1, “Fused-heterocycle dicarboxylic acid diamide derivatives or salts thereof, herbicide and usage thereof” (Nihon Nohyaku Co., Ltd., priority 1998, dated 2002)
# What was measured:
# Assay type in all cases: in vivo
# [1] = tested on: barnyard grass (Echinochloa crus-galli Beauv.); assay: Test Example 1: herbicidal effect on paddy field weeds before emergence; conditions: Dosage 5 kg/ha
# Outline: (§1)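 Seeds of both weeds, still ungerminated, in soil pots held under paddy conditions received a set dose of test solution as soil treatment. After twenty-one days, control relative to untreated pots was calculated and rated on a scoring scale.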
# [2] = tested on: bulrush (Scirpus juncoides Roxb.); assay: as above; conditions: Dosage 5 kg/ha
# Outline: as §1
# [3] = tested on: barnyard grass (Echinochloa crus-galli Beauv.); assay: Test Example 2: herbicidal effect on paddy field weeds after emergence; conditions: Dosage 5 kg/ha; one-leaved stage; 21 days after treatment
# Outline: (§2)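 Weeds in flooded paddy-soil pots were grown to the one-leaved stage, then the soil was treated with the compound solution at a set dosage.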
# [4] = tested on: bulrush (Scirpus juncoides Roxb.); assay: as above; conditions: Dosage 5 kg/ha; one-leaved stage; 21 days after treatment
# Outline: as §2
# [5] = tested on: monochoria (Monochoria vaginalis Presl); assay: as above; conditions: Dosage 5 kg/ha; one-leaved stage; 21 days after treatment
# Outline: as §2
# [6] = tested on: barnyard grass (Echinochloa crus-galli Beauv.), Ec; assay: Test Example 3: herbicidal effect on upland weeds before emergence; conditions: dosage 5 kg/ha
# Outline: (§3)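 Test compound, formulated as a liquid at a fixed concentration, is sprayed before weed emergence. Two weeks later, kill rate is derived and herbicidal activity is rated.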
# [7] = tested on: bird's eye speedwell (Veronica persica Poir.), Vp; assay: as above; conditions: dosage 5 kg/ha
# Outline: as §3
# [8] = tested on: cleavers (Galium aparine L.), Ga; assay: as above; conditions: dosage 5 kg/ha
# Outline: as §3
# [9] = tested on: cocklebur (Xanthium strumarium L.), Xs; assay: as above; conditions: dosage 5 kg/ha
# Outline: as §3
# [10] = tested on: forxtail grass (Alopecurus aequalis var. amurensis Ohwi), Am; assay: as above; conditions: foxtail grass, dosage 5 kg/ha
# Outline: as §3
# [11] = tested on: velvetleaf (Abutilon theophtasti L.), At; assay: as above; conditions: dosage 5 kg/ha
# Outline: as §3
# soybean plant (So) = assay: Test Example 3: phytotoxicity to upland crop plants, treatment before emergence; conditions: dosage 5 kg/ha
# Outline: (§4)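 Pre-emergence treatment: a liquid preparation containing a prescribed concentration of test compound was sprayed, and injury to soybean and wheat was assessed 14 days later. Phytotoxicity was judged against a scoring criterion, alongside weed-killing rate.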
# wheat (Wh) = assay: as above; conditions: dosage 5 kg/ha
# Outline: as §4
# [12] = tested on: barnyard grass (Echinochloa crus-galli Beauv.), Ec; assay: Test Example 4: herbicidal effect on upland weeds after emergence; conditions: dosage 5 kg/ha; sprayed after emergence; judged 14 days after treatment
# Outline: (§5)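 Weeds, soybean and wheat were sown in soil-filled vats, covered with soil and grown to set leaf stages before a post-emergence spray of an agent containing the compound at a prescribed concentration. Weed-killing rate and crop phytotoxicity were assessed 14 days after treatment.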
# [13] = tested on: bird's eye speedwell (Veronica persica Poir.), Vp; assay: as above; conditions: dosage 5 kg/ha; sprayed after emergence; judged 14 days after treatment
# Outline: as §5
# [14] = tested on: cleavers (Galium aparine L.), Ga; assay: as above; conditions: dosage 5 kg/ha; sprayed after emergence; judged 14 days after treatment
# Outline: as §5
# [15] = tested on: cocklebur (Xanthium strumarium L.), Xs; assay: as above; conditions: dosage 5 kg/ha; sprayed after emergence; judged 14 days after treatment
# Outline: as §5
# [16] = tested on: forxtail grass (Alopecurus aequalis var. amurensis Ohwi), Am; assay: as above; conditions: dosage 5 kg/ha; sprayed after emergence; judged 14 days after treatment
# Outline: as §5
# [17] = tested on: velvetleaf (Abutilon theophtasti L.), At; assay: as above; conditions: dosage 5 kg/ha; sprayed after emergence; judged 14 days after treatment
# Outline: as §5
# soybean plant = assay: Test Example 4: phytotoxicity to upland crop plants, treatment after emergence; conditions: dosage 5 kg/ha, sprayed after emergence, judged 14 days after treatment
# Outline: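 Post-emergence foliar spray at a prescribed concentration, applied once the sown weeds and soybean reached defined leaf stages in soil vats; herbicidal effect and soybean injury scored after 14 days.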
# wheat = assay: as above; conditions: dosage 5 kg/ha, sprayed after emergence, judged 14 days after treatment
# Outline: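 Seeds sown in soil and covered. Plants raised to specified leaf stages. Agent with test compound at a prescribed concentration sprayed. Herbicidal effect and crop damage scored after 14 days as weed-killing rate.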
SMILES,Pre-emergence treatment Barnyard grass (herbicidal effect) [1],Pre-emergence treatment Bulrush (herbicidal effect) [2],Post-emergence treatment Barnyard grass (herbicidal effect) [3],Post-emergence treatment Bulrush (herbicidal effect) [4],Post-emergence treatment Monochoria (herbicidal effect) [5],Herbicidal effect Ec [6],Herbicidal effect Vp [7],Herbicidal effect Ga [8],Herbicidal effect Xs [9],Herbicidal effect Am [10],Herbicidal effect At [11],Phytotoxicity So (soybean plant (So)),Phytotoxicity Wh (wheat (Wh)),Herbicidal effect Ec [12],Herbicidal effect Vp [13],Herbicidal effect Ga [14],Herbicidal effect Xs [15],Herbicidal effect Am [16],Herbicidal effect At [17],Phytotoxicity So (soybean plant),also measured
CCNC(=O)c1nc2ccsc2cc1C(=O)Nc1c(CC)ccc(Cl)c1CC [compound 870],5 (Weed-killing rate is 100%.),5 (Weed-killing rate is 100%.),5 (Weed-killing rate is 100%.),5 (Weed-killing rate is 100%.),5 (Weed-killing rate is 100%.),5 (Weed-killing rate is 100%.),5 (Weed-killing rate is 100%.),5 (Weed-killing rate is 100%.),5 (Weed-killing rate is 100%.),5 (Weed-killing rate is 100%.),5 (Weed-killing rate is 100%.),3 (Crop-killing rate is 70-89%.),4 (Crop-killing rate is 90-99%.),5 (Weed-killing rate is 100%.),5 (Weed-killing rate is 100%.),5 (Weed-killing rate is 100%.),5 (Weed-killing rate is 100%.),5 (Weed-killing rate is 100%.),5 (Weed-killing rate is 100%.),3 (Crop-killing rate is 70-89%.),Phytotoxicity Wh (wheat): 4 (Crop-killing rate is 90-99%.)
CCc1ccc(Cl)c(CC)c1NC(=O)c1nc2ccccc2nc1C(=O)NCC(C)(C)C [compound 1314],5 (Weed-killing rate is 100%.),5 (Weed-killing rate is 100%.),4 (Weed-killing rate is 90-99%.),4 (Weed-killing rate is 90-99%.),5 (Weed-killing rate is 100%.),5 (Weed-killing rate is 100%.),5 (Weed-killing rate is 100%.),4 (Weed-killing rate is 90-99%.),4 (Weed-killing rate is 90-99%.),5 (Weed-killing rate is 100%.),5 (Weed-killing rate is 100%.),3 (Crop-killing rate is 70-89%.),4 (Crop-killing rate is 90-99%.),5 (Weed-killing rate is 100%.),5 (Weed-killing rate is 100%.),4 (Weed-killing rate is 90-99%.),4 (Weed-killing rate is 90-99%.),5 (Weed-killing rate is 100%.),5 (Weed-killing rate is 100%.),4 (Crop-killing rate is 90-99%.),Phytotoxicity Wh (wheat): 4 (Crop-killing rate is 90-99%.)
"CCNC(=O)c1nc2ncccc2cc1C(=O)Nc1c(CC)ccc(Cl)c1CC [Compound No. 360, 3-(3-Chloro-2,6-diethylphenyl)-aminocarbonyl-1,8-naphthylidine-2-carboxylic Acid Ethylamide]",5 (Weed-killing rate is 100%.),5 (Weed-killing rate is 100%.),5 (Weed-killing rate is 100%.),5 (Weed-killing rate is 100%.),5 (Weed-killing rate is 100%.),5 (Weed-killing rate is 100%.),5 (Weed-killing rate is 100%.),5 (Weed-killing rate is 100%.),5 (Weed-killing rate is 100%.),5 (Weed-killing rate is 100%.),5 (Weed-killing rate is 100%.),3 (Crop-killing rate is 70-89%.),4 (Crop-killing rate is 90-99%.),5 (Weed-killing rate is 100%.),5 (Weed-killing rate is 100%.),4 (Weed-killing rate is 90-99%.),5 (Weed-killing rate is 100%.),5 (Weed-killing rate is 100%.),5 (Weed-killing rate is 100%.),3 (Crop-killing rate is 70-89%.),Phytotoxicity Wh (wheat): 4 (Crop-killing rate is 90-99%.)
Cc1c(Cl)cccc1NC(=O)c1cc2ccsc2nc1C(=O)NC1CCCC1 [compound 811],5 (Weed-killing rate is 100%.),5 (Weed-killing rate is 100%.),5 (Weed-killing rate is 100%.),5 (Weed-killing rate is 100%.),5 (Weed-killing rate is 100%.),5 (Weed-killing rate is 100%.),5 (Weed-killing rate is 100%.),5 (Weed-killing rate is 100%.),5 (Weed-killing rate is 100%.),5 (Weed-killing rate is 100%.),5 (Weed-killing rate is 100%.),4 (Crop-killing rate is 90-99%.),5 (Crop-killing rate is 100%.),5 (Weed-killing rate is 100%.),5 (Weed-killing rate is 100%.),4 (Weed-killing rate is 90-99%.),4 (Weed-killing rate is 90-99%.),5 (Weed-killing rate is 100%.),5 (Weed-killing rate is 100%.),4 (Crop-killing rate is 90-99%.),Phytotoxicity Wh (wheat): 5 (Crop-killing rate is 100%.)
